The text below walks through data of patent US8338482B2, “Modulating notch1 signaling pathway for treating neuroendocrine tumors” (Wisconsin Alumni Research Foundation, priority 2007, dated 2012).

In data set [1] the test system is BON human GI carcinoid cancer cells. The data set is described as follows: MTT cell proliferation assay, GI carcinoid cells. Format: cell-based. The source says: (§1) Cell Culture BON human GI carcinoid cancer cells, kindly provided by Drs. B. Mark Evers and Courtney M. Townsend, Jr. (University of Texas Medical Branch, Galveston, Tex., USA), and H727 human lung carcinoid cancer cells (American Type Tissue Collection, Manassas, Va., USA) were maintained as previously described (Sippel, R S et al., Raf-1 Activation Suppresses neuroendocrine marker and hormone levels in human gastrointestinal carcinoid cells. Am J Physiol Gastrointest Liver Physiol. 2003 August; 285(2):G245-54, Van Gompel J J et al., ZM336372, A Raf-1 Activator, Suppresses Growth and Neuroendocrine Hormone Levels in Carcinoid Tumor Cells. Mol Cancer Ther. 2005 June; 4(6):910-7)
(§2) Cell Proliferation Assay Carcinoid cancer cell proliferation was measured by the MTT (thiazolyl blue tetrazolium bromide; Sigma-Aldrich, St. Louis, Mo., USA) rapid calorimetric assay as previously described (Van Gompel J J et al., ZM336372, A Raf-1 Activator, Suppresses Growth and Neuroendocrine Hormone Levels in Carcinoid Tumor Cells. Mol Cancer Ther. 2005 June; 4(6):910-7). Briefly, cells were seeded in quadruplicate on 24-well plates and incubated for 24 hours to allow cell attachment. The cells were then treated with SBHA (Sigma-Aldrich) in concentrations of 0 to 50 μM and incubated for up to 6 days. The MTT assay was performed by replacing the standard medium with 250 μL of serum-free medium containing MTT (0.5 mg/mL) and incubated at 37° C. for 3 hours. After incubation, 750 μL of dimethyl sulfoxide (Sigma-Aldrich) was added to each well and mixed thoroughly. The plates were then measured at 540 nm using a spectrophotometer (μQuant; Bio-Tek Instruments, Winooski, Vt., USA).
Cell Culture BON human gastrointestinal (GI) carcinoid tumor cells, kindly provided by Drs. B. Mark Evers and Courtney M. Townsend, Jr. […]
(§3) Cell Proliferation Assay Carcinoid tumor cell proliferation was measured by the MTT (methylthiazolyldiphenyl-tetrazolium bromide; Sigma-Aldrich, St. Louis, Mo.) rapid colorimetric assay as previously described (Van Gompel J J et al., ZM336372, A Raf-1 Activator, Suppresses Growth and Neuroendocrine Hormone Levels in Carcinoid Tumor Cells. Mol Cancer Ther 2005; 4:910-917). […] The plates were then measured at 540 nm using a spectrophotometer (μQuant; Bio-Tek Instruments, Winooski, Vt.).

The subject of another data set is ASCL1 promoter. Put plainly: ASCL1 promoter luciferase reporter assay. Format: cell-based, human. The conditions noted are these: GI carcinoid cells, VPA 48 hours.
The conditions of data set [2]: human patients treated for epilepsy; cited from earlier work.
For the next data set, the system named is neuroblastoma (NB) cells. Particulars: cited from earlier work.
For data set [3], the system named is H727 human lung carcinoid cancer cells. Put plainly: MTT cell proliferation assay, pulmonary carcinoid cells. Particulars: VPA 0 to 4 mM, up to 6 days. Format: cell-based.
Text: as §1
as §2, with “After incubation, 750 μL of dimethyl sulfoxide (Sigma-Aldrich) was added to each well and mixed thoroughly.” left out, “USA). […]” for “USA).”
as §3

The subject of another data set is Notch1. Put plainly: CBF1 binding site luciferase reporter assay. Format: cell-based, human. The conditions noted are these: GI carcinoid cells, VPA 48 hours. As for the experimental part:
Luciferase Reporter Assays GI carcinoid tumor cells were transiently transfected with luciferase constructs as previously described (Kunnimalaiyaan, M. et al., Conservation of the Notch1 signaling pathway in gastrointestinal carcinoid cells A J Physiol Gastrointest Liver Physiol 2005; 289:G636-642). Wild-type (4xwtCBF1Luc; 2 μg) or mutant (4xmutCBF1Luc; 2 μg) CBF1-luciferase reporter plasmids were co-transfected with CMV-β-gal (0.5 μg) (Hsieh J J et al., Truncated Mammalian Notch1 Activates CBF1/RBPJk-Repressed Genes by a Mechanism Resembling That of Epstein-Barr Virus EBNA2. Mol Cell Biol 1996; 16:952-959). In experiments with the γ-secretase inhibitor, N-[N-(3,5-difluorophenacetyl)-L-alanyl]-S-phenylglycine t-butyl ester (DAPT; EMD Biosciences, Darmstadt, Germany), to inhibit Notch1 cleavage and activation, cells were pretreated for 45 minutes with DAPT (50 μM) then treated with 4 mM VPA. […] Luciferase levels were measured using a Monolight 2010 Luminometer (Analytical Luminescence Laboratory, San Diego, Calif.). […]

For the molecule `CCCC(CCC)C(=O)O` [VPA, 2-propylpentanoic acid], the inhibition at 1000 µM in data set [1] (Homo sapiens, 144 h, 1 mM, 6 days of treatment, read-out: growth inhibition relative to untreated cells) came to 50%. Also, the cell growth result in data set [1] (VPA 0 to 4 mM, up to 6 days) is on record as “profound dose-dependent inhibition of growth”. Moreover, in the data set with ASCL1 promoter, the “decrease in ASCL1 promoter luciferase activity” value was about 4 fold. Moreover, the therapeutic range in data set [2] was 50 to 125 µg/mL. In the data set on neuroblastoma (NB) cells, the cell death entry is “increased cell death”; the “levels of intracellular Notch-1 and Hes-1” value was “increased levels”. Also, in data set [3], the cell growth result is given as “Statistically significant growth inhibition”. Besides, the “increase in CBF1 luciferase activity” value in the data set on Notch1 turned out to be 5 fold.
